From publication PMC11982498 (Redox Biology, 2025)

Tests used:
APP/PS1 transgenic mice = assay: Morris water maze (MWM); type: in vivo; details: B14 10, 20, 40 mg/kg i.p. every other day; vs model group
Source text: (§1) Five months old male APP/PS1 mice, weighing 25–33 g, were purchased from Guangdong Medical Laboratory Animal Center and housed in the Laboratory Animal Center of Sun Yat-sen University (Guangzhou, China) for experimentation. All procedures were approved by the Animal Care and Use Committee of Sun Yat-sen University and complied with legal requirements and national guidelines for the care and maintenance of laboratory animals (Approval No. SYSU-IACUC-2024-002032). The mice were housed in a specific pathogen-free environment with a controlled temperature of 22 ± 1 °C and a 12-h dark/light cycle. The mice were fed with a standard diet, and 30 mice were randomly divided into 6 groups (N = 5). Compound B14 was dissolved in saline and administered at doses of 10, 20, or 40 mg/kg. […]
The spatial memory and learning abilities of the mice were assessed using Morris water maze (MWM), novel object recognition (NOR) and nesting experiments (NBT). The anxiety and depressive behaviors were evaluated through the open field test (OFT) and elevated plus maze (EPM). […]
Morris water maze (MWM) system consisted of a heated circular pool, a target platform, and a video capture with analysis system. […] The time taken to find the platform (latency) was recorded. […] The platform was removed, and the mice were monitored for 60 seconds. […]

bEnd.3 = assay: MTT cytotoxicity assay, bEnd.3; type: cell-based; details: BEND3; incubation for 48 h
Aβ1-42 = biological target: T1, Aβ1-42 (Homo sapiens, UniProt P05067); assay: Thioflavine T fluorescence spectroscopy assay (time course to 96 h); type: biochemical; details: 20 μM compound, Aβ1-42 incubated for 96 h
T1 construct: Aβ1-42 was purchased from Gill Biochemicals Ltd (Shanghai, China); purchased Gill Biochemicals Ltd (Shanghai, China)
Description: (§2) The Aβ1-42 solutions (100 μM) were co-incubated with B14 (20 μM) or Curcumin (20 μM) at 37 °C protected from light for 96 h. 30 μL of Aβ1-42 solution was taken at different time points (0 h, 10 h, 24 h, 48 h, 72 h, 96 h), mixed fully with 400 μL of ThT solution (15 μM), and incubated in the dark for 30 min. The fluorescence signal was recorded by using a Cary Eclipse fluorescence spectrophotometer (Varian, USA) with the following setting: excitation wavelength at 440 nm, emission wavelength at 480 nm, and slit width of 20 nm.
as §2, with “μM) and” for “μM) or”, “Aβ1-42 solutions were” for “Aβ1-42 solution was”, “by” for “by using”, “with” for “with the following setting:”

HRAS promoter i-motif = assay: TO displacement assay, HRAS i-motif; type: binding
Description: DNA oligonucleotides were diluted to 1 μM with 1 × PBES buffer at pH 5.5, annealed at 95 °C for 10 min, cooled to room temperature, and stored at 4 °C for future use. TO dye (1 μM) was added to the DNA solution followed with incubation for 1 h. The spectra of 100 μL mixture with addition of different equivalent compounds at 25 °C were recorded based on fluorescence emission (λex = 480 nm).
TO displacement ratio (%) = (F0 − FC) / (F0 − FB) * 100.
F0 and FC were the fluorescence intensity of TO at 536 nm with DNA before and after adding compounds, respectively. FB was the fluorescence intensity of TO at 536 nm with buffer only.

[1] = tested on: F-BCL-2 (BCL-2 IM) (DNA, i motif) CAGCCCCGCTCCCGCCCCCTTCCTCCCGCGCCCGCCCCT; assay: MST, Hill fit; details: K+ 100 mM KCl plus potassium phosphate; BPES buffer (30 mM phosphate, 1 mM EDTA), pH 5.5
[2] = tested on: MDA, SOD, GSH-Px, CAT in hippocampus of APP/PS1 mice; assay: Biochemical parameters analysis (oxidative stress) in hippocampus; type: in vivo
Source text: as §1, with “mg/kg. APP/PS1 male mice were grown until 6 months of age, and then injected intraperitoneally with compound B14 every other day for 60 days.” for “mg/kg.”
The hippocampi were homogenized in normal saline containing protease inhibitors. The homogenate was centrifuged at 2500 rpm for 10 min, and the protein concentration in the supernatant was measured by using the bicinchoninic acid (BCA, Beyotime, Jiangsu, China) method. The levels of malondialdehyde (MDA) and the activities of superoxide dismutase (SOD), glutathione peroxidase (GSH-Px) and […] (CAT) were determined by using relevant assay kits (Beyotime, Jiangsu, China).

[3] = biological target: BCL-2 G-quadruplex (BCL-2 G4); assay: MST binding to BCL-2 G-quadruplex; details: Tris-HCl buffer pH 7.4
Description: After incubation of DNA with compound for 60 min, the sample was loaded in MST-grade glass capillaries. The intensity of the LED power was set at 20 %, and the MST laser was set at 40 %. The analyses were performed using a Monolith NT.115, and the fitting curve was obtained by using NT Analysis 1.5.41 via Hill fitting. The KD value represents the numeric equivalent of the concentration of B14 when the response is half of the plateau response (Rmax) of the fitting curve.

T1 sequence (P05067 672-713 limits assumed): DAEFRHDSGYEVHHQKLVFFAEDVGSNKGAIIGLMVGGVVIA

For `O=C(CCN1CCOCC1)Nc1ccc2c(c1)c(=O)c1cc(NC(=O)CCN3CCOCC3)ccc1n2-c1ccc2occc2c1` [Compound B14], the “escape latency (MWM)” value (APP/PS1 transgenic mice) was “significantly short”, the “number for the mice to cross the platform (MWM)” value (APP/PS1 transgenic mice) was “significantly increased” and the IC50 (bEnd.3) was > 100 µM. For the same molecule, the “decrease of ThT fluorescence intensity” value (Aβ1-42) was 39.58 ± 2.08%, the TO displacement ratio (HRAS promoter i-motif) was 16% and the KD [1] was 1.06 µM. For the same molecule, the MDA level [2] was “reduce the levels of lipid peroxides MDA”, the “levels of antioxidant enzymes” value [2] was “restore the levels of antioxidant enzymes (SOD, GSH-Px, and CAT)” and the Kd [3] was 59.8 µM.
